pIC50: −log10 of the molar value.
Target: T1, Recombinant human TPH1 (MBP tagged) (Homo sapiens, UniProt P17752)
T1 construct: cloning full length human TPH1 cDNA in to a bacterial pMAL-c5E expression vector; made in house; host or cells: E. coli BL21 (DE3)
T1 sequence (P17752 1-444): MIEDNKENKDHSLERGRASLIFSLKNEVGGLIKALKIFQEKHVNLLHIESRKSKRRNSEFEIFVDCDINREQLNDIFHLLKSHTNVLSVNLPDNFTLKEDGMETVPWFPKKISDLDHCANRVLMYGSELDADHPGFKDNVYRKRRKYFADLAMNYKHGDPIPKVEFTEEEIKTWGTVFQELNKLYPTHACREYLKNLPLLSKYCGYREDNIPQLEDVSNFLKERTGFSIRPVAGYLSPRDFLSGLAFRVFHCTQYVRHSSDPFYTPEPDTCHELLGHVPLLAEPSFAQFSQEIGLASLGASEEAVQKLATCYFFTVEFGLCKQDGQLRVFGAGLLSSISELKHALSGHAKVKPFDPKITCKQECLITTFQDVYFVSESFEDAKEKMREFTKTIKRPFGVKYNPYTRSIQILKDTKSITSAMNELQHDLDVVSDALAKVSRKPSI
Assay: TPH1 in vitro inhibition assay (kinetic fluorescence)
Type: biochemical
Details: read-out: TPH1 Range (TPH1 inhibition IC50)
Excerpt: Recombinant human TPH1 (rTPH1 GenBank™ accession no. NP_004179) was expressed by cloning full length human TPH1 cDNA in to a bacterial pMAL-c5E expression vector to produce maltose-binding protein (MBP) TPH1 fusion proteins. E. coli BL21 (DE3) containing pMAL-c5E-TPH1 was used for protein generation and the recombinant protein was purified utilizing standard column chromatography techniques. The MBP tagged TPH1 (MBP-TPH1) was used directly to screen compounds as described below. Recombinant human TPH2 (rTPH2 GenBank™ accession no. 173353), PheOH (rPheOH GenBank™ accession no. K03020) and TH (rTH GenBank™ accession no. L20679) with an MBP tag were produced similarly.
TPH1 activities were measured in an assay containing 200 mM ammonium sulfate, 7 mM DTT, 50 μg/mL catalase, 25 μM ammonium iron sulfate, 50 mM MES, pH 7.1. Test compounds were diluted in 100% DMSO and added to the assay plate in 1 μL aliquots at 100× final concentration. Fifty microliters of assay buffer containing 30 nM TPH1 enzyme (MBP tagged) were added to the plate wells containing the test compound by the use of an Eppendorf repeater pipette. The reaction was initiated by the addition of 50 μL of assay buffer containing 60 μM tryptophan and 72 μM 6-6-methyltetra-hydropterin (2× final concentration) by the use of a Multidrop (LabSystems). Final reaction conditions were 15 nM TPH1 enzyme, 30 μM tryptophan, 36 μM 6-methyltetra-hydropterin, 200 mM ammonium sulfate, 7 mM DTT, […], 25 μM ferrous ammonium sulfate, 50 mM MES, pH 7.1, with atmospheric oxygen at room temperature. The plate was immediately placed onto an M5 plate reader (Molecular Devices) for kinetic fluorescence measurement using an excitation setting of 300 nm and an emission setting of 335 nm. Fluorescence reads are recorded in kinetic mode for 300 seconds (5 minutes).
Kinetic assay data for compounds at specific concentrations was translated into slopes using the Softmax Pro software on a Spectramax reader, and compound inhibition slopes were compared with wells containing enzyme, substrate and cofactor in the absence of inhibitor (100%), and wells containing substrate and cofactor in the absence of enzyme (0%). DMSO concentration in the assay was 1%. […] IC50's were determined using Graphpad Prism.

Row | pIC50 | SMILES
1 | > 7.30 | Cc1ccn(-c2cc(-c3ccc(S(C)(=O)=O)cc3)ccc2[C@@H](Oc2cc(N3CCC4(CC3)CN[C@H](C(=O)O)C4)nc(N)n2)C(F)(F)F)n1 [Example 1cc, (S)-8-(2-amino-6-((R)-2,2,2-trifluoro-1-(3-(3-methyl-1H-pyrazol-1-yl)-4′-(methylsulfonyl)-[1,1′-biphenyl]-4-yl)ethoxy)pyrimidin-4-yl)-2,8-diazaspiro[4.5]decane-3-carboxylic acid]
2 | 6.52 to 7.30 | Nc1nc(O[C@H](c2ccc(Cl)cc2-c2ccccc2N)C(F)(F)F)cc(N2CCC3(CC2)CNC(C(=O)O)C3)n1 (stereo partly drawn) [Example 34d, 8-(2-amino-6-((R)-1-(2′-amino-5-chloro-[1,1′-biphenyl]-2-yl)-2,2,2-trifluoroethoxy)pyrimidin-4-yl)-2,8-diazaspiro[4.5]decane-3-carboxylic acid]
3 | > 7.30 | Cc1ccn(-c2cc(-c3ccc(C(=O)N(C)C)cc3)ccc2[C@@H](Oc2cc(N3CCC4(CC3)CN[C@H](C(=O)O)C4)nc(C)n2)C(F)(F)F)n1 [Example 29j, (S)-8-(6-((R)-1-(4′-(dimethylcarbamoyl)-3-(3-methyl-1H-pyrazol-1-yl)-[1,1′-biphenyl]-4-yl)-2,2,2-trifluoroethoxy)-2-methylpyrimidin-4-yl)-2,8-diazaspiro[4.5]decane-3-carboxylic acid]
4 | 5.00 to 5.52 | Nc1nc(NCC23CC4CC(CC(C4)C2)C3)cc(N2CCC3(CC2)CN[C@H](C(=O)O)C3)n1 [Example 41c, (3S)-8-(6-(((3S,5S)-adamantan-1-ylmethyl)amino)-2-aminopyrimidin-4-yl)-2,8-diazaspiro[4.5]decane-3-carboxylic acid]
5 | 6.52 to 7.30 | Nc1nc(O[C@H](c2ccc(Cl)cc2-c2cccc(C(=O)N3CCOCC3)c2)C(F)(F)F)cc(N2CCC3(CC2)CN[C@H](C(=O)O)C3)n1 [Example 34cg, (S)-8-(2-amino-6-((R)-1-(5-chloro-3′-(morpholine-4-carbonyl)-[1,1′-biphenyl]-2-yl)-2,2,2-trifluoroethoxy)pyrimidin-4-yl)-2,8-diazaspiro[4.5]decane-3-carboxylic acid]
6 | 6.52 to 7.30 | COc1ccc(-c2ccc([C@@H](Oc3cc(N4CCC5(CC4)CN[C@H](C(=O)O)C5)nc(N)n3)C(F)(F)F)cc2)c(OC)c1 [Example 55cc, (S)-8-(2-amino-6-((R)-1-(2′,4′-dimethoxy-[1,1′-biphenyl]-4-yl)-2,2,2-trifluoroethoxy)pyrimidin-4-yl)-2,8-diazaspiro[4.5]decane-3-carboxylic acid]
7 | 6.52 to 7.30 | Nc1nc(O[C@H](c2ccc(-c3ccc(C(=O)NCCN4CCOCC4)cc3)cc2)C(F)(F)F)cc(N2CCC3(CC2)CN[C@H](C(=O)O)C3)n1 [Example 55dh, (S)-8-(2-amino-6-((R)-2,2,2-trifluoro-1-(4′-((2-morpholinoethyl)carbamoyl)-[1,1′-biphenyl]-4-yl)ethoxy)pyrimidin-4-yl)-2,8-diazaspiro[4.5]decane-3-carboxylic acid]
8 | > 7.30 | Nc1nc(O[C@H](c2ccc(Cl)cc2-c2ccc(Cl)c(F)c2)C(F)(F)F)cc(N2CCC3(CC2)CN[C@H](C(=O)O)C3)n1 [Example 34af, (S)-8-(2-amino-6-((R)-1-(4′,5-dichloro-3′-fluoro-[1,1′-biphenyl]-2-yl)-2,2,2-trifluoroethoxy)pyrimidin-4-yl)-2,8-diazaspiro[4.5]decane-3-carboxylic acid]
9 | 6.52 to 7.30 | CN1CCN(c2cccc(-c3cc(Cl)ccc3[C@@H](Oc3cc(N4CCC5(CC4)CN[C@H](C(=O)O)C5)nc(N)n3)C(F)(F)F)c2)C1=O [Example 34p, (S)-8-(2-amino-6-((R)-1-(5-chloro-3′-(3-methyl-2-oxoimidazolidin-1-yl)-[1,1′-biphenyl]-2-yl)-2,2,2-trifluoroethoxy)pyrimidin-4-yl)-2,8-diazaspiro[4.5]decane-3-carboxylic acid]
